Measured values taken from ChEMBL document CHEMBL3596188, “Synthesis and structure-activity relationship of aminoarylthiazole derivatives as correctors of the chloride transport defect in cystic fibrosis” (Eur J Med Chem, 2015).
Activity calls are given as the source filed them.

The compounds below were run against T1, Cystic fibrosis transmembrane conductance regulator (Homo sapiens, UniProt P13569) (assay: (§1) Potentiator activity at CFTR F508del mutant (unknown origin) expressed in human CFBE41o cells assessed as increase in iodine influx measured after 30 mins incubation following rescue of F508del-CFTR by low temperature for 24 hrs by HS-YFP assay). Settings: cfbe41o.
Assay type: cell-based

T1 sequence (P13569 as listed by the source): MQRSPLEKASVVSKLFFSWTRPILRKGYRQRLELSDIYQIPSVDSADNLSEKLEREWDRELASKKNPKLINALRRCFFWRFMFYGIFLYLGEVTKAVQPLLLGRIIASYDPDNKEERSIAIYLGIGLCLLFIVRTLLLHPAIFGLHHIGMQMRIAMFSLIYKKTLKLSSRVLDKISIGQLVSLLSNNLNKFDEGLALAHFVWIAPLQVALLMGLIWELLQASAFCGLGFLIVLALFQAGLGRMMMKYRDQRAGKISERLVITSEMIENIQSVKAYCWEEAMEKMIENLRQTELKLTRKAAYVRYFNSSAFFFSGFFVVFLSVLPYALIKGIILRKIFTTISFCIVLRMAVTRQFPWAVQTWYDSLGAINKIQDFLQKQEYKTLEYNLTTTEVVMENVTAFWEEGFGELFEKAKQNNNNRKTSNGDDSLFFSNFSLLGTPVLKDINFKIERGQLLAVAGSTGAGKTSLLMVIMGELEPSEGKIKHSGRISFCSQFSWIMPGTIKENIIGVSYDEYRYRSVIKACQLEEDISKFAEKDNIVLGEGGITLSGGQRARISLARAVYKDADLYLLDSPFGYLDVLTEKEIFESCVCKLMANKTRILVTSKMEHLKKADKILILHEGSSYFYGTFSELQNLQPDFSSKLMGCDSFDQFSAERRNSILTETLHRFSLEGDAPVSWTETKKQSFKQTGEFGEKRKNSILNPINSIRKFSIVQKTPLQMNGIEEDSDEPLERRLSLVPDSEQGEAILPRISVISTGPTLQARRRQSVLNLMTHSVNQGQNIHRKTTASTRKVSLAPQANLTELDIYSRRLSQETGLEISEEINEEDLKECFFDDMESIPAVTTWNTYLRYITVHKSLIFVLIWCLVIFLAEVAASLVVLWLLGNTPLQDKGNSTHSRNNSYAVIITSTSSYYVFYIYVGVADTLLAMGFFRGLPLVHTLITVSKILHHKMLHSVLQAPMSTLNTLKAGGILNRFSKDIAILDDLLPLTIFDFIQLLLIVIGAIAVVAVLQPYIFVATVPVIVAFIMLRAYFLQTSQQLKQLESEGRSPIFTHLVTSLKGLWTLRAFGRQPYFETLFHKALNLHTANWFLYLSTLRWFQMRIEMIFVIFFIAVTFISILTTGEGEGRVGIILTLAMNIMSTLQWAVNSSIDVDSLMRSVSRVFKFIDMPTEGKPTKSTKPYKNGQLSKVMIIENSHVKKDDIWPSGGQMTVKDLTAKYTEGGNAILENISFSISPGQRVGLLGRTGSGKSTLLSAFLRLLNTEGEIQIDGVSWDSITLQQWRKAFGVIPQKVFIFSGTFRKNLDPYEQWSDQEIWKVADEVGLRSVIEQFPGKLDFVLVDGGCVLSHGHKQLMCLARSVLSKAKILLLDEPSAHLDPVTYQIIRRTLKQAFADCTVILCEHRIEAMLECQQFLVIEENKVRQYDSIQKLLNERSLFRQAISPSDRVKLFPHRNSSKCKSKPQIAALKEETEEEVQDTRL

SMILES | EC50
CSc1cccc(Nc2nc(-c3ccc(F)c(Br)c3)cs2)c1 | Not Active
CSc1cccc(Nc2nc(-c3cc(Cl)cc(C(F)(F)F)c3)cs2)c1 | Not Active

What follows are compounds tested against Cystic fibrosis transmembrane conductance regulator (Homo sapiens, UniProt P13569, F508DEL) (assay: as §1). Settings: not given.
Assay type: cell-based

Sequence of Cystic fibrosis transmembrane conductance regulator (Homo sapiens, UniProt P13569, F508DEL) (P13569 as listed by the source): as above

SMILES | EC50 [µM]
CSc1cccc(Nc2nc(-c3cc(Cl)cs3)cs2)c1 | 15
CSc1cccc(Nc2nc(-c3ccc(F)cc3)cs2)c1 | 27
CSc1cccc(Nc2nc(-c3nccs3)cs2)c1 | 9.5
CSc1cccc(Nc2nc(-c3ccc(C#N)cc3)cs2)c1 | 34
CSc1cccc(Nc2nc(-c3ccc4c(c3)OCO4)cs2)c1 | 71

What follows are compounds tested against T1, Cystic fibrosis transmembrane conductance regulator (assay: Corrector activity at CFTR F508del mutant (unknown origin) expressed in human CFBE41o cells assessed as iodide influx after 24 hrs by HS-YFP assay). Settings: cfbe41o.
Assay type: cell-based

SMILES | EC50
CSc1cccc(Nc2nc(-c3cc(Cl)cs3)cs2)c1 | Not Active
CSc1cccc(Nc2nc(-c3ccc(F)cc3)cs2)c1 | Not Active
CSc1cccc(Nc2nc(-c3nccs3)cs2)c1 | Not Active
CSc1cccc(Nc2nc(-c3ccc(C#N)cc3)cs2)c1 | Not Active
CSc1cccc(Nc2nc(-c3ccc4c(c3)OCO4)cs2)c1 | Not Active

What follows are compounds tested on Cystic fibrosis transmembrane conductance regulator (Homo sapiens), P13569 [F508del] (assay: Corrector activity at CFTR F508del mutant (unknown origin) expressed in human CFBE41o cells assessed as iodide influx at 10 uM after 24 hrs by HS-YFP assay). Settings: not given.
Assay type: cell-based

Sequence of Cystic fibrosis transmembrane conductance regulator (Homo sapiens), P13569 [F508del] (P13569 as listed by the source): as above

SMILES | Activity
CSc1cccc(Nc2nc(-c3cc(OC(C)=O)c(OC(C)=O)c(OC(C)=O)c3)cs2)c1 | inactive
CSc1cccc(Nc2nc(-c3cc(Br)ccc3O)cs2)c1 | inactive
Brc1ccc(-c2csc(NCc3ccccc3)n2)cc1 | inactive
CCCSc1cccc(Nc2nc(-c3cccc(Cl)c3)cs2)c1 | inactive
CSc1cccc(Nc2nc(-c3ccc(Br)cc3)c(C)s2)c1 | inactive
CSc1cccc(Nc2nc(-c3ccccc3)c(C)s2)c1 | inactive
CCCOc1ccc(-c2csc(Nc3cccc(SC)c3)n2)cc1 | inactive
CSc1cccc(Nc2nc(-c3ccco3)cs2)c1 | inactive
CSc1cccc(Nc2nc(-c3cccc(SC)c3)cs2)c1 | inactive
Sc1cccc(Nc2nc(-c3cccc(Cl)c3)cs2)c1 | inactive
CSc1cccc(Nc2nc(-c3cccc(NC(C)=O)c3)cs2)c1 | inactive
CSc1cccc(Nc2nc(-c3ccccc3)c(C(=O)c3ccccc3)s2)c1 | inactive
CSc1cccc(Nc2nc(-c3ccsc3)cs2)c1 | inactive
CSc1cccc(Nc2nc(-c3cc4ccccc4o3)cs2)c1 | inactive
CSc1cccc(Nc2nc(-c3cc(Cl)cs3)cs2)c1 | inactive
CSc1cccc(Nc2nc(-c3ccc(Cl)cc3Cl)cs2)c1 | inactive
COc1ccc(-c2csc(Nc3cccc(SC)c3)n2)cc1Cl | inactive
CSc1cccc(Nc2nc3ccc(Br)cc3s2)c1 | inactive
CSc1cccc(Nc2nc(-c3c(Cl)ccc(F)c3Cl)cs2)c1 | inactive
CSc1cccc(Nc2nc(-c3ccc(Cl)c([N+](=O)[O-])c3)cs2)c1 | inactive
CSc1cccc(Nc2nc(-c3ccccc3Cl)cs2)c1 | inactive
CSc1cccc(Nc2nc(-c3cc(Cl)cc(OC(F)(F)F)c3)cs2)c1 | inactive
CSc1cccc(Nc2nc(-c3ccc(Br)c([N+](=O)[O-])c3)cs2)c1 | inactive
CSc1cccc(Nc2nc(-c3cc(Cl)cc(Cl)c3F)cs2)c1 | inactive
CSc1cccc(Nc2nc(Cc3ccc(Br)cc3)cs2)c1 | inactive
CSc1cccc(Nc2nc(-c3cc(Cl)cc(Cl)c3O)cs2)c1 | inactive

SMILES | Activity
CSc1cccc(N(C)c2nc(-c3cccc(Cl)c3)cs2)c1 | inactive
CSc1cccc(Nc2nc(-c3cc(Cl)c(O)c(Cl)c3)cs2)c1 | Active
CSc1cccc(Nc2nc(-c3ccc(-c4ccccn4)s3)cs2)c1 | inactive
CSc1cccc(Nc2nc(-c3cc(Cl)ccc3Cl)cs2)c1 | inactive
CSc1cccc(Nc2nc(-c3cc(C)n(-c4ccc(Cl)cc4)c3C)cs2)c1 | inactive
CSc1cccc(Nc2nc(-c3cc(-c4ccc(Cl)cc4)no3)cs2)c1 | inactive
CC(=O)Oc1ccccc1C(=O)Nc1nc(-c2ccc(Br)cc2)cs1 | inactive
CSc1cccc(Nc2nc(-c3ccc(F)c(Br)c3)cs2)c1 | Active
CSc1cccc(Nc2nc(-c3ccc(F)cc3)cs2)c1 | inactive
CSc1cccc(Nc2nc(-c3cccc(Br)c3)cs2)c1 | Active
CSc1cccc(Nc2nc(C)cs2)c1 | inactive
O=C(Nc1nc(-c2ccc(Br)cc2)cs1)c1ccncc1 | inactive
CCSc1cccc(Nc2nc(-c3cccc(Cl)c3)cs2)c1 | inactive
CSc1cccc(Nc2nc(-c3nccs3)cs2)c1 | inactive
CSc1cccc(Nc2nc(-c3nc(C)cs3)cs2)c1 | inactive
CSc1cccc(Nc2nc(-c3ccc(C#N)cc3)cs2)c1 | inactive
Brc1ccc(-c2csc(NC3CCCCC3)n2)cc1 | inactive
CSc1cccc(Nc2nc(-c3ccccc3C)cs2)c1 | inactive
CSc1cccc(Nc2nc(-c3cccc(I)c3)cs2)c1 | inactive
CSc1cccc(Nc2nc(-c3ccc4c(c3)C(C)(C)CCC4(C)C)cs2)c1 | inactive
CCc1ccc(Nc2nc(-c3cccc(Cl)c3)cs2)cc1SC | Active
CSc1cccc(Nc2nc(-c3cc(C)cs3)cs2)c1 | inactive
COc1ccc(-c2csc(Nc3cccc(SC)c3)n2)cc1 | inactive
CSc1cccc(Nc2nc(-c3cc(Cl)ccc3O)cs2)c1 | Active
CSc1cccc(Nc2nc(-c3cc4ccccc4oc3=O)cs2)c1 | inactive
CSc1cccc(Nc2nc(-c3cc(OCC(=O)O)c(OCC(=O)O)c(OCC(=O)O)c3)cs2)c1 | inactive

SMILES | Activity
CSc1cccc(Nc2nc(-c3cccc(F)c3)cs2)c1 | inactive
CSc1cccc(Nc2nc(-c3ccc4c(c3)OCCO4)cs2)c1 | inactive
CSc1cccc(Nc2nc(-c3ccc4c(c3)NC(=O)CS4)cs2)c1 | inactive
CSc1cccc(Nc2nc(-c3cccc(Cl)c3Cl)cs2)c1 | inactive
CSc1cccc(Nc2nc(-c3ccc([N+](=O)[O-])cc3)cs2)c1 | inactive
CSc1cccc(Nc2nc(-c3ccc4sccc4c3)cs2)c1 | Active
CSc1cccc(Nc2nc(-c3ccc(Cl)c(C)c3)cs2)c1 | inactive
COc1cc2c(cc1OC)CN(c1csc(Nc3cccc(SC)c3)n1)CC2 | inactive
CSc1cccc(Nc2nc(-c3ccc(CC(F)(F)F)cc3)cs2)c1 | inactive
O=C(Nc1nc(-c2ccc(Br)cc2)cs1)c1ccccc1O | inactive
CSc1cccc(Nc2nc(-c3cccnc3)cs2)c1 | inactive
CSc1cccc(Nc2nc(-c3ccc(CCCl)cc3)cs2)c1 | inactive
COc1ccccc1-c1csc(Nc2cccc(SC)c2)n1 | inactive
CSc1cccc(Nc2nc(-c3cc(F)cc(Cl)c3)cs2)c1 | inactive
CSc1cccc(Nc2nc(-c3ccc4c(c3)OCO4)cs2)c1 | inactive
CSc1cccc(Nc2nc(-c3ccc(F)c(Cl)c3)cs2)c1 | Active
CSc1cccc(Nc2nc(-c3ccc(C)cc3C)cs2)c1 | inactive
CSc1cccc(Nc2nc(-c3cccc(Cl)c3)c(C)s2)c1 | inactive
CCCCCc1ccc(-c2csc(Nc3cccc(SC)c3)n2)cc1 | inactive
CSc1cccc(Nc2nc(-c3ccc(C(F)(F)F)cc3)cs2)c1 | inactive
CSc1cccc(Nc2nc(-c3cccc(OCC(=O)O)c3)cs2)c1 | inactive
O=C(Nc1nc(-c2ccc(Br)cc2)cs1)c1ccccc1 | inactive
CSc1cccc(Nc2nc(-c3cc(Cl)cc(C(F)(F)F)c3)cs2)c1 | Active
CSc1cccc(Nc2nc(CC(=O)Nc3ccccc3)cs2)c1 | inactive
CSc1cccc(Nc2nc(-c3nc4ccccc4n3C)cs2)c1 | inactive
CCN(CC)c1ccc(-c2csc(Nc3cccc(SC)c3)n2)cc1 | inactive

SMILES | Activity
CSc1cccc(Nc2nc(-c3ccc(S(C)(=O)=O)cc3)cs2)c1 | inactive
CSc1cccc(Nc2nc(-c3cc(C(C)(C)C)c(O)c(C(C)(C)C)c3)cs2)c1 | inactive
CCCCCc1csc(-c2csc(Nc3cccc(SC)c3)n2)c1 | inactive
CSc1cccc(Nc2nc(-c3cccc([N+](=O)[O-])c3)cs2)c1 | inactive
CSc1cccc(Nc2nc(-c3ccccn3)cs2)c1 | inactive
CSc1cccc(Nc2nc(-c3ccc(O)c(O)c3)cs2)c1 | inactive
CSc1cccc(Nc2nc(-c3cccc(C(F)(F)F)c3)cs2)c1 | inactive
CSc1cccc(Nc2nc(-c3cn(-c4ccccc4)c(C)n3)cs2)c1 | inactive
Brc1ccc(-c2csc(N(Cc3ccccc3)Cc3ccccc3)n2)cc1 | inactive
COc1ccc(-c2csc(Nc3cccc(SC)c3)n2)c(OC)c1 | inactive
CSc1cccc(Nc2nc(-c3cnc(CS(=O)(=O)c4ccccn4)s3)cs2)c1 | inactive
CSc1cccc(Nc2nc(-c3ccc(Cl)cc3)c(-c3ccc(C)cc3)s2)c1 | inactive
Nc1nc(-c2ccc(Br)cc2)cs1 | inactive
CSc1cccc(Nc2nc(-c3cccc(O)c3)cs2)c1 | inactive
CSc1cccc(Nc2nc(-c3cnc4ccccc4c3)cs2)c1 | inactive
CSc1cccc(Nc2nc(-c3cccc(C)c3)cs2)c1 | inactive
CSc1cccc(Nc2nc(-c3ccc4c(c3)ncn4C)cs2)c1 | inactive
CSc1cccc(Nc2nc(-c3nnn(-c4cc(Cl)cc(Cl)c4)c3C)cs2)c1 | inactive
CSc1cccc(N(Cc2ccccc2)c2nc(-c3cccc(Cl)c3)cs2)c1 | inactive
CSc1cccc(Nc2nc(-c3ccc4c(c3)OCCCO4)cs2)c1 | inactive
CSc1cccc(Nc2nc(-c3c(-c4ccccc4)noc3C)cs2)c1 | inactive
Brc1ccc(-c2csc(N3CCCCC3)n2)cc1 | inactive
CSc1cccc(Nc2nc(-c3cccc(OCC(=O)OC(C)(C)C)c3)cs2)c1 | inactive
CSc1cccc(Nc2nc(-c3nc4ccccc4s3)cs2)c1 | inactive
